Data published in ChEMBL document CHEMBL5233248, “Resveratrol - A comprehensive review of recent advances in anticancer drug design and development” (Eur J Med Chem, 2020).
“And” between values parts separate entries of the source, which are not always exact repeats. Equal entries are not always repeated. Structures can show the parent of a compound that is named as a salt. Each block holds one compound with its values, some of them ahead of it.

Assays:
in vitro = conditions: human, CCD-1059Sk cells and MCF7 cells
Description: Selectivity index, ratio of IC50 for cytotoxicity against CCD-1059Sk cells to IC50 for antiproliferative activity against MCF7 cells

[1] = Cytotoxicity activity against human CCD-1059Sk cells assessed as cell growth inhibition incubated for 48 hrs by MTS assay; format: toxicity, cell-based
MCF7 [2] = test: Anticancer activity against human MCF7 cells assessed as cell growth inhibition incubated for 48 hrs by MTS assay; format: functional, cell-based; conditions: MCF7, 48 h
MDA-MB-231 = test: Anticancer activity against human MDA-MB-231 cells assessed as reduction in cell viability measured after 48 hrs at 150 uM by MTT assay relative to control; format: functional
PANC-1 = test: Anticancer activity against human PANC-1 cells assessed as cell growth inhibition incubated for 48 hrs by SRB assay; format: functional; conditions: Homo sapiens, PANC-1, 48 h
[3] = Anticancer activity against Lung adenocarcinoma cell line assessed as cell growth inhibition measured after 72 hrs by MTT assay; format: functional, cell-based; conditions: Lung adenocarcinoma cell line, 72 h
A549 = test: Anticancer activity against human A549 cells assessed as cell growth inhibition measured after 72 hrs by MTT assay; format: functional, cell-based
Aromatase = target: T1, Aromatase (Homo sapiens, UniProt P11511)
T1 sequence (P11511 whole entry): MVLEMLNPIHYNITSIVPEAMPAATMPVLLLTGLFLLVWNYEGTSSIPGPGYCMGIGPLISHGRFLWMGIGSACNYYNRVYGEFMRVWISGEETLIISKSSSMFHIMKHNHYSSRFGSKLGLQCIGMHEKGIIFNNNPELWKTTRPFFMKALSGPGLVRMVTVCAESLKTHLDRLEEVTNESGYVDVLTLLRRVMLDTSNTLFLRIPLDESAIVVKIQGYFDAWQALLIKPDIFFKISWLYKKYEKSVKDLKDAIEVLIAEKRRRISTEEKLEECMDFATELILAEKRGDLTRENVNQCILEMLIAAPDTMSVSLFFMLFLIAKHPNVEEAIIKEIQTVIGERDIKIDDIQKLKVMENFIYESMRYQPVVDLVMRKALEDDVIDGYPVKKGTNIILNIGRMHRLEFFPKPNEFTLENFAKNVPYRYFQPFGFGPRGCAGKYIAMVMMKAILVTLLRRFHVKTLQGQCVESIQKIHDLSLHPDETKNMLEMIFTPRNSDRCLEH
Description: Inhibition of human Aromatase

HeLa = test: Anticancer activity against human HeLa cells assessed as cell growth inhibition measured after 72 hrs by MTT assay; format: functional, cell-based
CYP1A = CYP1A (Homo sapiens, UniProt P04798+P05177); test: Inhibtion of CYP1A (unknown origin); format: ADME, protein assay
HepG2 [4] = test: Anticancer activity against human HepG2 cells assessed as cell growth inhibition incubated for 3 days by MTT assay; format: functional, cell-based; conditions: HepG2, 72 h
HCT-116 = test: Anticancer activity against human HCT-116 cells assessed as cell growth inhibition; format: functional, cell-based
B16-F10 [5] = test: Anti cancer activity against mouse B16-F10 cells assessed as cell growth inhibition incubated for 40 hrs by Almar Blue stained fluorescence-based assay; format: functional; conditions: B16-F10, 40 h
B16-F10 [6] = test: Anti cancer activity against mouse B16-F10 cells assessed as cell growth inhibition incubated for 40 hrs by Almar Blue stained fluorescence-based assay relative to control; format: functional
[7] = Anticancer activity against human AZ-AHR cells assessed as cell growth inhibition incubate for 24 hrs by MTT assay; format: functional, cell-based
HEK293 = test: Anticancer activity against human HEK293 cells assessed as cell growth inhibition incubated for 3 days by MTT assay; format: functional, cell-based; conditions: HEK293, 72 h
HT-29 [8] = test: Anticancer activity against human HT-29 cells assessed as cell growth inhibition incubated for 3 days by MTT assay; format: functional, cell-based; conditions: HT-29, 72 h
MCF7 [9] = test: Anticancer activity against human MCF7 cells assessed as cell growth inhibition incubated for 3 days by MTT assay; format: functional, cell-based; conditions: MCF7, 72 h
HT-29 [10] = test: Anticancer activity against human HT-29 cells assessed as cell growth inhibition incubated for 24 hrs by MTT assay; format: functional, cell-based; conditions: Homo sapiens, HT-29, 24 h
SK-BR-3 = test: Anticancer activity against human SK-BR-3 cells assessed as cell growth inhibition incubated for 24 hrs by MTT assay; format: functional, cell-based; conditions: SK-BR-3, 24 h
HepG2 [11] = test: Anticancer activity against human HepG2 cells assessed as cell growth inhibition incubated for 24 hrs by MTT assay; format: functional, cell-based; conditions: HepG2, 24 h
Ishikawa = test: cells; conditions: Homo sapiens
Description: Anti-tumor activity against human ishikawa cells assessed as anti-estrogenic potential

[12] = Homo sapiens, HeLa, 72 h, read-out: IC50

Compound: COc1cc(/C=N/NC(=O)/C=C/c2ccc(O)c(OC)c2)cc(OC)c1
selectivity ratio (in vitro): 6.81
IC50 at 48 h [1]: 130 µM
IC50 (MCF7 [2]): 43 µM

Compound: CC(C)(C)C(=O)Oc1ccc(/C=C/c2cc(O)cc(O)c2)cc1
Activity (MDA-MB-231): 7.7%

Compound: COc1ccc(-c2nnc(SCC(=O)Nc3ccc(/C=C/c4cc(OC)cc(OC)c4)cc3)o2)cc1
GI50 (PANC-1): 64 nM

Compound: COc1cc(/C=C/c2ccc(OC(=O)CSc3nnc(-c4cc(OC)c(OC)c(OC)c4)o3)cc2)cc(OC)c1
GI50 (PANC-1): 64 nM

Compound: Oc1ccc(/C=C/c2cc(O)cc(OCc3ccccc3)c2)cc1
IC50 [3]: 7.96 µM
IC50 (A549; Homo sapiens, A549, 72 h): 11.8 µM
IC50 (Aromatase): 2.7 µM
IC50 (HeLa; [12]): 1410 nM
IC50 (CYP1A): 140 nM

Compound: COc1cc(/C=C/c2ccc(OC(=O)CSc3nnc(-c4c(F)cccc4F)o3)cc2)cc(OC)c1
GI50 (PANC-1): 64 nM

Compound: COc1cc(/C=C/c2ccc(OC(=O)CSc3nnc(-c4ccc(F)cc4)o3)cc2)cc(OC)c1
GI50 (PANC-1): 64 nM

Compound: CCCC(=O)Oc1ccc(/C=C/c2cc(O)cc(O)c2)cc1
Activity (MDA-MB-231): 14.14%

Compound: COc1ccc(/C=C/c2cc(OC)c(OC)c(OC)c2)cc1
IC50 (HCT-116): 1.1 µM

Compound: COc1ccc(/C=C\c2ccc(OC)c(OC)c2)cc1 [7Z-3,4,4'-TRIMETHOXYSTILBENE]
IC50 (B16-F10 [5]): 1000 nM

Compound: COc1cc(/C=C\c2ccc(OC)c(OC)c2)cc(OC)c1 [(Z)-3,4,3',5'-TETRAMETHOXYSTILBENE]
IC50 (B16-F10 [5]): 1000 nM
inhibition (INH) (B16-F10 [6]): 80%

Compound: CC(=O)Oc1ccc(/C=C/c2cc(OC(C)=O)cc(OC(C)=O)c2)cc1 [TRIACETYLRESVERATROL]
IC50 [3]: 3.4 µM
IC50 (A549; a549): 3.4 µM and 9.43 µM
IC50 (HeLa; [12]): 3400 nM
IC50 (HeLa; time 72 hrs): 20140 nM

Compound: COc1ccc(/C=C/c2cc(OC)cc(OC)c2)cc1 [TRISMETHOXYRESVERATROL]
IC50 (HT-29 [10]): 14 µM
IC50 (SK-BR-3): 112 µM
IC50 (Aromatase): 13.6 µM
IC50 (HepG2 [11]): > 100 µM
IC50 (Ishikawa): 12.6 µM
IC50 (CYP1A): 3 nM
IC50 (HCT-116): 1.1 µM

Further lines, with some results ahead:

GI50 (PANC-1): 64 nM
Compound: COc1cc(/C=C/c2ccc(OC(=O)CSc3nnc(-c4ccc(C(F)(F)F)cc4)o3)cc2)cc(OC)c1

GI50 (PANC-1): 64 nM
Compound: COc1cc(/C=C/c2ccc(NC(=O)CSc3nnc(-c4ccc(F)cc4)o3)cc2)cc(OC)c1

GI50 (PANC-1): 64 nM
Compound: COc1cc(/C=C/c2ccc(NC(=O)CSc3nnc(-c4ccccc4F)o3)cc2)cc(OC)c1

GI50 (PANC-1): 64 nM
Compound: COc1cc(/C=C/c2ccc(OC(=O)CSc3nnc(-c4ccncc4)o3)cc2)cc(OC)c1

GI50 (PANC-1): 64 nM
Compound: COc1cc(/C=C/c2ccc(OC(=O)CSc3nnc(-c4cnccn4)o3)cc2)cc(OC)c1

IC50 (HepG2 [4]): 67.2 µM
Compound: CCOc1cc(/C=C/c2ccc(O)c(O)c2)cc(OCC)c1

GI50 (PANC-1): 64 nM
Compound: COc1cc(/C=C/c2ccc(NC(=O)CSc3nnc(-c4cccc(C(F)(F)F)c4)o3)cc2)cc(OC)c1

GI50 (PANC-1): 64 nM
Compound: COc1ccc(-c2nnc(SCC(=O)Oc3ccc(/C=C/c4cc(OC)cc(OC)c4)cc3)o2)cc1

IC50 (HCT-116): 25.1 µM
Compound: Oc1ccc(/C=C\c2cc(O)cc(O)c2)cc1 [CIS-RESVERATROL]
IC50 [7]: 25.1 µM

IC50 (A549; Homo sapiens, A549, 72 h): 2.36 µM
IC50 (HeLa; [12]): 480 nM
Compound: COc1cccc2c1C(=O)c1c(O)c3c(c(O)c1C2=O)C[C@@](O)(C(=O)CO)C[C@@H]3O[C@H]1C[C@H](N)[C@H](O)[C@H](C)O1 [DOXORUBICIN HYDROCHLORIDE]
IC50 [3]: 1.18 µM

IC50 (HCT-116): 5 µM
Compound: Oc1cc(O)cc(/C=C/c2ccc(O)c(O)c2)c1 [PICEATANNOL]
IC50 [7]: 4.5 µM

IC50 (HT-29 [8]): 18 µM
IC50 (MCF7 [9]): 38 µM
Compound: OC[C@H]1O[C@@H](Oc2cc(O)cc(/C=C/c3ccc(O)cc3)c2)[C@H](O)[C@@H](O)[C@@H]1O [PICEID]
IC50 (HEK293): > 100 µM
